The values below come from patent US20220296573A1, “NOVEL COMPOUNDS AND PHARMACEUTICAL COMPOSITIONS THEREOF FOR THE TREATMENT OF INFLAMMATORY DISORDERS” (Galapagos NV, priority 2019, published 2022).

Series [1] concerns Mouse Hepatocyte. As to the kind of experiment: Metabolic stability in mouse hepatocytes. It counts as in vitro ADME. To be noted: mouse cryopreserved hepatocytes, 1 μM. On the procedure:
(§1) The aim of this assay is to determine the metabolic stability of the compound in hepatocytes (cryopreserved) of different species. Low hepatocyte stability may result in the formation of unwanted metabolites, high clearance, and therefore is not desirable.
(§2) A 10 mM stock solution of test compound in DMSO was first diluted in DMSO to 3 mM, and then in modified Krebs-Henseleit buffer (Sigma, K3753) to 5 μM. This compound dilution was added to a suspension of pooled cryopreserved hepatocytes (BioreclamationIVT) at 37° C. under gentle shaking.
(§3) Final reaction conditions were: 1 μM of test compound, 0.03% DMSO, 0.5 million viable hepatocytes/mL, and 75 μL incubation volume.
(§4) Testosterone (1 μM) and 7-hydroxycoumarin (1 μM) were used, respectively as phase I and phase II metabolic reaction controls.
(§5) After 0, 10, 20, 45, 90, 120 and 180 min of incubation, the reaction was terminated with 225 μL of MeCN:MeOH (2:1) containing 100 ng/mL of diclofenac as analytical internal standard. Samples were mixed, centrifuged and the supernatant analyzed by LC-MS/MS.
(§6) The instrument responses (ratios of test compound and internal standard peak areas) were referenced to the zero time point samples (considered as 100%) in order to determine the percentage of compound remaining.
(§7) Plots of percentage compound remaining were used to determine the intrinsic clearance in the hepatocyte incubations using the following equations:
(§8) Scaled Clint [L/h/kg]=Clint [μL/min/10^6 cells]*#(10) cells/g liver*60*(1/10^6) Scaled Clint unbound [L/h/kg]=Clint [L/h/kg]/Fu,inc where: fu,inc equals hepatocyte binding, derived from microsomal binding (fu,mic) by following equation: […]

Series [2] concerns the target T1, human IRAK-4 (Homo sapiens, UniProt Q9NWZ3).
T1 construct: purchased Carna Biosciences 09 145
T1 sequence (Q9NWZ3 1-460): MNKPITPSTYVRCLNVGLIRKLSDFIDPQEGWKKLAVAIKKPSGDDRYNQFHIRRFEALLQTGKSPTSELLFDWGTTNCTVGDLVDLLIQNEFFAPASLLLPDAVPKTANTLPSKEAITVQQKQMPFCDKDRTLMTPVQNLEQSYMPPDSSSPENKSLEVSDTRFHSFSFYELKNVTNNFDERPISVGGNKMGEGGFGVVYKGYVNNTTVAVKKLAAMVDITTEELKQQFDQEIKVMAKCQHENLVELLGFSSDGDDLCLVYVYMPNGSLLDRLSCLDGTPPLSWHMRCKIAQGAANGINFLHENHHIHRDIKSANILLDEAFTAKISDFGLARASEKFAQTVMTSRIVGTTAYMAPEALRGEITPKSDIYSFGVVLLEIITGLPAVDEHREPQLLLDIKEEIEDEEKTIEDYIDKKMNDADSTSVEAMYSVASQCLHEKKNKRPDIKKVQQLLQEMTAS
Description: Phosphorylation IC50 determination for human IRAK-4 (ADP-Glo Kinase Assay). Conditions: human IRAK-4, substrate RIP140, Km ATP; read-out: IRAK4 ADPglo biochemical assay IC50. Here is the method:
The phosphorylation of the substrate RIP140 (SEQ ID1) by IRAK4 at Km ATP was detected with the ADP-Glo Kinase Assay (Promega, Cat #V9103), a luminescent kinase assay which measures the ADP formed from a kinase reaction. (Zegzouti et al. 2009) In a second step the kinase reaction was terminated and all the remaining ATP was depleted. In a final step the ADP was converted into ATP and this newly synthesized ATP was measured by using a luciferase/luciferin reaction with a luminescent reader. The luminescent signal positively correlated with kinase activity, in particular kinase inhibition giving a decrease of the luminescent signal.
For the semi-automated assay, the positive control (100% inhibition) was prepared by diluting 10 mM staurosporine stock mixture (20 μL) in water (3.8 mL) and DMSO (180 μL), thus resulting in a […] staurosporine solution at 1% DMSO (final concentration after further dilution in the kinase reaction).
For the automated assay, no pre-dilution of the 10 mM staurosporine stock was made. 10 mM staurosporine was spotted directly in the assay plate using acoustic dispensing and complemented with DMSO to result in a similar final concentration as mentioned above.
For the semi-automated assay, the negative control (0% inhibition) was prepared by mixing water (3.8 mL) and DMSO (200 μL) resulting in a final concentration of 1% DMSO after further dilution in the kinase reaction. For the automated assay no pre-dilution of DMSO was done. 100% DMSO was spotted directly on the assay plate.
The assay buffer solution was prepared at a concentration corresponding to 5 fold the final (most diluted) assay concentration by mixing a solution of 125 mM TRIS pH 7.5+0.05% Triton X-100+2.5 mM EGTA (5.27 mL) with 1M mgCl2 (72 μL), 1M DTT (57.6 μL), and 200 mM MnCl2 (360 μL).
For example, for the semi-automated method, the enzyme-substrate mixture was prepared by mixing water (3999 μL), assay buffer solution (1380 μL), 1 mM RIP140 (138 μL—SEQ ID1), and 200 ng/mL IRAK 4 (3.45 μL Carna Biosciences, 09 145).
For semi-automated method, the ATP mixture was prepared at a concentration corresponding to 2.5 fold the final (most diluted) assay concentration of the semi-automated method and 1.5 fold the final (most diluted) assay concentration of the automated method. For example, for the semi-automated method, the ATP mixture was prepared by mixing water (4126 μL), assay buffer solution (1380 μL), and 10 mM ATP (13.80 μL).
The assay are performed either in a semi-automated or fully automated manner. The assay volume and the incubation time of the ADP detection were different accordingly the method used.
The compounds were prepared as a serial dilution of 10 point dose responses with 1/5 dilution steps in 100% DMSO starting from 2 mM highest concentration, diluted 1/20 in water. 1 μL was transferred dry to the assay plates.
On each assay plate 32 wells of each control (positive & negative) were added, followed by 2 μL enzyme-substrate mixture.
The reaction was started by adding 2 μL diluted ATP (final concentration Km ATP) on the assay plates. Plates were centrifuged for a few seconds at 1000 rpm followed by an incubation at r.t. for 120 min.
The reactions were stopped and the unconsumed ATP was depleted by adding 5 μL ADP-glo Reagent (Promega, Cat #V9103) to the reaction. The plates were quickly centrifuged at 1000 rpm and incubated at r.t. for 40 min corresponding to full ATP depletion.
The ADP was converted back to ATP and luciferase and luciferin were introduced to detect ATP by adding 10 μL kinase detection reagent (Promega, Cat #V9103) to the reaction. The plates were centrifuged for a few seconds at 1000 rpm and incubated at r.t. for a further 30 min.
Luminescent read out was performed on an Envision luminescent reader (Perkin Elmer).
For the automated assay, the compounds were prepared as a serial dilution of 10 point dose responses with 1/5 dilution steps in 100% DMSO starting from 2 mM highest concentration. […]
(ADP-Glo first removes unused ATP, then detects ADP through luciferase.)

The subject of series [3] is Human Hepatocyte. Description: Metabolic stability in human hepatocytes. It counts as in vitro ADME. Conditions: human cryopreserved hepatocytes, 1 μM. Here is the method: as §1, §2, §3, §4, §5, §6, §7, §8

Molecules are shown by their SMILES.

By IC50 is commonly meant the concentration needed to halve the response being measured. `CNC(=O)c1cc2nc(C3COCCO3)cn2cc1NC(=O)c1cccc(C(C)(F)F)n1` (stereo not drawn) [Compound 14, 6-(6-(1,1-difluoroethyl)picolinamido)-2-(1,4-dioxan-2-yl)-N-methylimidazo[1,2-a]pyridine-7-carboxamide]: in series [1], the “Mouse Hepatocyte stability (Perc. remaining at 90 min)” value was determined as 67.65 Perc. For the same compound, the half-inhibitory concentration (IC50) in series [2] was in the range of 0.1 to 5 nM. Also, in series [3], the “Human Hepatocyte stability (Perc. remaining at 90 min)” value was 100.05 Perc.
Turning to `O=C(Nc1cn2cc(C3CCOCC3)nc2c(F)c1OCC(F)F)c1cccn(C2CC2)c1=O` [Compound 19, 1-cyclopropyl-N-(7-(2,2-difluoroethoxy)-8-fluoro-2-(tetrahydro-2H-pyran-4-yl)imidazo[1,2-a]pyridin-6-yl)-2-oxo-1,2-dihydropyridine-3-carboxamide], the “Mouse Hepatocyte stability (Perc. remaining at 90 min)” value in series [1] is given as 76.5 Perc. The IC50 in series [2] lay within 10 to 50 nM. Further, the “Human Hepatocyte stability (Perc. remaining at 90 min)” value in series [3] was found to be 56.6 Perc.
